The source of these data is patent US20220264878A1, “HERBICIDAL COMPOSITION CONTAINING R-TYPE PYRIDYLOXY CARBOXYLIC ACID DERIVATIVE AND USE THEREOF” (Qingdao Kingagroot Chemical Compound Co., Ltd., priority 2019, published 2022).

What all share (experiment): Post-emergence foliage spray, pot culture, fresh weight inhibition (Tables 1-48, 51-98, 101-148; 24 days)
Assay type in all cases: in vivo

The test system of one assay is Solanum nigrum. An outline of the steps:
(§1)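 Greenhouse pot-grown weeds (15 per pot, 3 pots, 4 replicates) at the 5–6-leaf (grasses) or 6–7-leaf (broadleaf) stage were sprayed once on foliage at 450 kg/ha spray volume, 0.3 MPa. Acetone solutions were diluted in 0.1% Tween-80. Aboveground fresh weight versus blank control was recorded after 24 days.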

Assay [1] has as its system Veronica persica^2 (collected in Zhumadian of Henan Province). In a few lines: as §1
The test system of a further assay is Chloris virgata. In a few lines:
as §1

For the next assay, the system named is Eleusine indica. An outline of the steps: as §1

For `CCOC(=O)C(Cl)Cc1cc(-n2nc(C)n(C(F)F)c2=O)c(F)cc1Cl` (stereo not shown) [carfentrazone-ethyl], the “Control effect (%) of B applied alone in corresponding dose” value (from here on “Control effect (%) of B applied alone”) in the assay with Solanum nigrum (B 1.875 g a.i./ha) is listed as 6.3%; in the assay on Solanum nigrum (B 3.75 g a.i./ha), 12.1%; with Solanum nigrum (B 7.5 g a.i./ha), 38.0%; with Solanum nigrum (B 15 g a.i./ha) it was 68.7%; in assay [1] (Table 90, 1.875 g a.i./ha) it was 2.6%; in assay [1] (Table 90, 3.75 g a.i./ha) it was 11.6%. Further, the “Control effect (%) of B applied alone” value in assay [1] (Table 90, 7.5 g a.i./ha) is listed as 36.2%; in assay [1] (Table 90, 15 g a.i./ha) it was 68.2%.

`O=C(Nc1ccc(F)cc1F)c1cccnc1Oc1cccc(C(F)(F)F)c1` [diflufenican]: the “Control effect (%) of B applied alone” value with Solanum nigrum (B 15 g a.i./ha) is 6.0%; in the assay on Solanum nigrum (B 30 g a.i./ha) it was 15.0%; in the assay on Solanum nigrum (B 60 g a.i./ha) it was 41.7%; with Solanum nigrum (B 120 g a.i./ha) it was 76.5%; in assay [1] (Table 87, 15 g a.i./ha) it was 2.3%; in assay [1] (Table 87, 30 g a.i./ha), 10.2%. The “Control effect (%) of B applied alone” value in assay [1] (Table 87, 60 g a.i./ha) came out at 40.3%; in assay [1] (Table 87, 120 g a.i./ha) it was 76.2%.

For the compound `O=C1C(Cl)C(CCl)CN1c1cccc(C(F)(F)F)c1` (stereo not shown) [flurochloridone], the “Control effect (%) of B applied alone” value stood at 5.5% in the assay on Solanum nigrum (B 75 g a.i./ha); 13.7% in the assay with Solanum nigrum (B 150 g a.i./ha); 45.8% in the assay with Solanum nigrum (B 300 g a.i./ha); 79.7% in the assay on Solanum nigrum (B 600 g a.i./ha); 2.1% in assay [1] (Table 88, 75 g a.i./ha); 12.3% in assay [1] (Table 88, 150 g a.i./ha). In addition, the “Control effect (%) of B applied alone” value in assay [1] (Table 88, 300 g a.i./ha) was 44.5%; in assay [1] (Table 88, 600 g a.i./ha), 79.6%.

Consider `CS(=O)(=O)c1ccc(C(=O)C2C(=O)CCCC2=O)c([N+](=O)[O-])c1` [mesotrione], for which the “Control effect (%) of B applied alone” value in the assay on Chloris virgata (B 15 g a.i./ha) is reported as 6.5%; with Chloris virgata (B 30 g a.i./ha), 13.4%; with Chloris virgata (B 60 g a.i./ha), 38.3%; in the assay with Chloris virgata (B 120 g a.i./ha), 75.2%; in the assay with Eleusine indica (Table 82, 15 g a.i./ha), 4.0%; in the assay with Eleusine indica (Table 82, 30 g a.i./ha), 10.9%. Further, the “Control effect (%) of B applied alone” value in the assay on Eleusine indica (Table 82, 60 g a.i./ha) is 36.9%; in the assay on Eleusine indica (Table 82, 120 g a.i./ha) it was 75.0%.

Consider `CS(=O)(=O)c1ccc(C(=O)C2C(=O)CCCC2=O)c(Cl)c1COCC(F)(F)F` [tembotrione], for which the “Control effect (%) of B applied alone” value in the assay on Chloris virgata (B 3.75 g a.i./ha) turned out to be 4.0%; in the assay with Chloris virgata (B 7.5 g a.i./ha) it was 12.3%; in the assay on Chloris virgata (B 15 g a.i./ha), 41.0%; in the assay with Chloris virgata (B 30 g a.i./ha), 73.4%; in the assay with Eleusine indica (Table 83, 3.75 g a.i./ha), 5.4%; in the assay with Eleusine indica (Table 83, 7.5 g a.i./ha), 12.3%. Also, the “Control effect (%) of B applied alone” value in the assay with Eleusine indica (Table 83, 15 g a.i./ha) is on record as 39.7%; with Eleusine indica (Table 83, 30 g a.i./ha) it was 73.1%.
